Like-named read-outs stand apart in the source and are kept apart here. Marks after values point to notes of the source that are not given here.

The nature of experiment [1]: ABTS radical scavenging assay. It is filed as biochemical. As to conditions: Trolox equivalent antioxidant capacity. As to the method: (§1) The antioxidant activities of the 70% methanol extract of M. volcanica and the separated compounds were evaluated using DPPH, ABTS, and ORAC assays. The results were expressed as Trolox equivalent antioxidant capacity (TEAC, µg Trolox/µg extract or µM Trolox/µM compound), which were calculated with the equations obtained from the calibration curves of Trolox standards (final concentrations) versus their DPPH and ABTS radical inhibition (%) and the net AUC value (ORAC assay).
The ABTS radical scavenging assay was carried out using the same EL800 microplate reader. Briefly, 0.2 mM of ABTS diammonium salt was prepared in 3.5 mM of potassium persulfate aqueous solution, and the mixture solution was then diluted 10 times using distilled water. The diluted solution was allowed to stand for 24 h in the dark at room temperature (about 25 °C) to produce ABTS radical cations (ABTS^+). For reaction, 290 μL of ABTS^+ solution was mixed with 10 μL of sample (dissolved in methanol, extract 62.5–125 µg/mL; compounds 20–250 µM) in a 96-well plate, and the mixture solution was allowed to react for 10 min at 25 °C in the dark. Then, the absorbance was measured at 750 nm. […] Results are expressed in µg Trolox equivalents/µg extract or µM Trolox equivalents/µM compound. The ABTS radical scavenging activity (%) is calculated using Equation (1) where Asample is the absorbance of ABTS^+ solution with a sample, Ablank1 is the absorbance of the test sample without ABTS^+, Acontrol is the absorbance of ABTS^+ solution without a sample, Ablank2 is the absorbance of buffer, without ABTS^+ or a sample.

Experiment [2] has as its system streptozotocin-induced diabetic rats. As to conditions: cited from earlier work.
Experiment [3] is described as follows: ORAC (oxygen radical absorbance capacity) assay. It is filed as biochemical. Particulars: Trolox equivalent antioxidant capacity, ORAC assay (peroxyl radicals). As to the method:
as §1
The ORAC assay was carried out using a Fluoroskan Ascent FL microplate reader (Thermo, Waltham, MA, USA) using the method described previously with minor modifications. Antioxidants can scavenge the peroxyl radicals generated by AAPH, which prevent the degradation of the fluorescein and, therefore, prevent the loss of the fluorescence of fluorescein. Briefly, fluorescein sodium salt (117 nM) and AAPH (40 mM) were freshly prepared in 0.1 M phosphate-buffered saline (PBS, pH 7.4). For reaction, 120 µL of fluorescein sodium salt (117 nM) and 20 µL of sample (dissolved in methanol, extract 10–20 µg/mL; compounds 10–160 µM) were mixed in a black 96-well plate and pre-incubated for 15 min at 37 °C. Next, 60 µL of AAPH (40 mM) was added, and the fluorescence was measured 100 times (interval 1 min) at excitation and emission wavelengths of 485 nm and 538 nm, respectively, by the microplate reader maintained at 37 °C. […] The relative ORAC values are expressed in µg Trolox equivalents/µg extract or µM Trolox equivalents/µM compound.

A further experiment has as its system diabetic rats. Particulars: cited from earlier work.
The target of experiment [4] is fructose-mediated bovine serum albumin (BSA) glycation (Bos taurus, UniProt P02769). The experiment can be described thus: Antiglycation assay, fructose-mediated BSA glycation model. As to conditions: for inhibition at 12.5 µM / inhibition at 25 µM / inhibition at 50 µM / inhibition at 100 µM: read-out: Antiglycation activity, inhibition (%).
Sequence of fructose-mediated bovine serum albumin (BSA) glycation (P02769 25-607): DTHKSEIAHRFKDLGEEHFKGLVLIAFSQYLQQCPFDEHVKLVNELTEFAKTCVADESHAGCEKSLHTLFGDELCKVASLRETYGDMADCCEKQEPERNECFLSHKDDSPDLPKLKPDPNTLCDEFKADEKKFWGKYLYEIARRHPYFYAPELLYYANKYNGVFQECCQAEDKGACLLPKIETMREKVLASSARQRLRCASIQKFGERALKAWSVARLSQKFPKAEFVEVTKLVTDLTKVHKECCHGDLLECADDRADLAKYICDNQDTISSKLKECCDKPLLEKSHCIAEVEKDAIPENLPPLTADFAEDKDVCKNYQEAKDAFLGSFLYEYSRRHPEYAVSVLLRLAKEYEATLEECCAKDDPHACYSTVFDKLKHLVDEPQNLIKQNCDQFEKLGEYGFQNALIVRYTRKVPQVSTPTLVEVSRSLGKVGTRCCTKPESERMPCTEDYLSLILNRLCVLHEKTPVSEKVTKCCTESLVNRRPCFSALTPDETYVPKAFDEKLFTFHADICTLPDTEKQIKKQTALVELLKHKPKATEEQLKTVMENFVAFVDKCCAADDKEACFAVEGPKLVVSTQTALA
Procedure: The antiglycation assay was carried out using a fructose-mediated BSA glycation model as reported previously [43] with minor modifications. […] Then, 200 µL of the reaction solution from each sample was pipetted to black 96-well plates to determine the fluorescent AGEs using a microplate fluorescence reader (BIOTEK-FLx800, Winooski, VT, USA) at excitation and emission wavelengths of 360 ± 20 nm and 460 ± 20 nm, respectively. Aminoguanidine [25], a synthetic antiglycation agent, was used as a positive control with final concentrations of 200 µg/mL to 800 µg/mL or 1 mM to 4 mM.
A short description of experiment [5]: DPPH radical scavenging assay. Format: biochemical. As to conditions: Trolox equivalent antioxidant capacity. The method, then:
as §1
The DPPH radical scavenging assay was carried out using an EL800 microplate reader (Bio-Tek Instruments, Winooski, VT, USA). Briefly, 180 μL of freshly prepared DPPH solution (0.32 mM in methanol) was mixed with 20 μL of sample (dissolved in methanol, extract 250 µg/mL; compounds 62.5–1000 µM) in a 96-well plate. The mixture was incubated for 20 min in the dark at 25 °C, and then, the absorbance was measured at […]. […] Results are expressed in µg Trolox equivalents/µg extract or µM Trolox equivalents/µM compound. The DPPH radical scavenging activity (%) is calculated using Equation (1):(1) %inhibition=1−Asample−Ablank1/Acontrol−Ablank2×100%, where Asample is the absorbance of DPPH solution with a sample, Ablank1 is the absorbance of the test sample without DPPH, Acontrol is the absorbance of DPPH solution without a sample, Ablank2 is the absorbance of methanol, without DPPH or a sample.

In a further experiment the test system is human erythrocytes. Further details: method as in earlier work. Particulars: high glucose conditions; cited from earlier work.
The next experiment deals with T1, aldose reductase (AR) (Rattus norvegicus, UniProt P07943).
T1 construct: centrifuged at 10,000× g for 30 min at 4 °C (Centrifuge 5417R, Eppendorf, Germany) to obtain AR homogenate (in the supernatant); from tissue; host or cells: eye lenses of Sprague–Dawley rats
The experiment can be described thus: Aldose reductase (AR) inhibition assay, rat lens homogenate. Format: biochemical, Sprague–Dawley rats. Particulars: for inhibition at 3.125 µM / inhibition at 6.25 µM / inhibition at 12.5 µM / inhibition at 25 µM: read-out: AR inhibition activity, inhibition (%). As to the method: For the extraction of AR, the rat eye lenses were grounded in a precooled mortar (−70 °C) and extracted using 0.1 M PBS (pH 6.2; about 0.5 mL of PBS per two frozen rat lenses).
A 96-well plate-based AR inhibition assay was used in this study, which was modified from a previous method. In principle, the rate of the absorbance decrease of NADPH at 340 nm (OD340 nm) was used for evaluation of the AR inhibitory activity. […] Then, as soon as 20 μL of the substrate (DL-glyceraldehyde dimer, 25 mM in 0.1 M PBS, pH 7.0) was added, the absorbance of the reaction solution at 340 nm was measured for 6 min using an Epoch microplate spectrophotometer (BioTek Instruments, Highland Park, IL, USA). […] The samples were first prepared at high concentrations in DMSO or in a mixture of DMSO and water and then diluted using water shortly before the experiment. The concentration of DMSO was kept within 0.2% (v/v) in the reaction system. […] The AR inhibition ratio (%) for the samples was calculated using Equation (4):(4) %inhibition=1−Slopes−Slopeb/Slopec−Slopeb×100%, where Slopec, Slopes, and Slopeb are the slopes obtained from the OD340 nm versus the reaction time (min) dotted lines of the control group (without sample), sample group (with enzyme and sample), and blank group (without enzyme or sample), respectively. |Slope| is the absolute value of Slope.

The conditions of experiment [6]: cited from earlier work.
Experiment [7] has as its system streptozotocin-induced diabetic cats. Particulars: cited from earlier work.

`C[C@@H]1O[C@@H](OC[C@H]2O[C@@H](Oc3c(-c4ccc(O)c(O)c4)oc4cc(O)cc(O)c4c3=O)[C@H](O)[C@@H](O)[C@@H]2O)[C@H](O)[C@H](O)[C@H]1O` [Rutin (8), rutin]: the “TEAC, ABTS” value in [1] is reported as 1.12 ± 0.04 ^d µM trolox/µM Compound. For the same compound, in experiment [2], the “Effect on oxidative stress” value was “ameliorate the oxidative stress”. Besides, in experiment [3], the “TEAC, ORAC” value is recorded as 5.77 ± 0.08 ^b µM trolox/µM Compound. The “Progression of lens opacification” value with diabetic rats is reported as “delay the progression of lens opacification”. For the same compound, in [4], the IC50 was determined as 20.1 ± 0.23 µM, the inhibition at 12.5 µM worked out at 30.8 ± 1.1%, the inhibition at 25 µM is 61.7 ± 2.49% and the inhibition at 50 µM turned out to be 81.82 ± 0.65%. Besides, the inhibition at 100 µM in [4] was determined as 91.51 ± 0.4%. Moreover, the “TEAC, DPPH” value in [5] is 0.90 ± 0.09 ^e µM trolox/µM Compound. In addition, in the experiment with human erythrocytes, the “Accumulation of sorbitol in human erythrocytes” value is “suppress the accumulation of sorbitol”. The inhibition at 3.125 µM at aldose reductase (AR) (3.125 µM) is 46.4 ± 1.21%. In addition, the inhibition at 6.25 µM on aldose reductase (AR) (6.25 µM) worked out at 62.79 ± 0.3%. Also, the inhibition at 12.5 µM on aldose reductase (AR) (12.5 µM) came to 75.2 ± 0.9%. Also, the inhibition at 25 µM at aldose reductase (AR) (25 µM) came out at 84.5 ± 1.51%. At aldose reductase (AR) (rat lens AR homogenate), this compound came in with an IC50 of 3.51 ± 0.12 µM. Further, the “Inhibition of AGEs by trapping methylglyoxal” value in experiment [6] is recorded as “inhibit AGEs by trapping methylglyoxal”. Also, the Impaired cardiac function result in experiment [7] is on record as “partially reverse the impaired cardiac function”.
Regarding `O=c1c(O)c(-c2ccc(O)c(O)c2)oc2cc(O)cc(O)c12` [Quercetin (10), quercetin], the “TEAC, ABTS” value in [1] was 3.61 ± 0.03 ^a µM trolox/µM Compound. In addition, the “TEAC, ABTS” value in experiment [1] (listed as quercetin) was found to be 3.61 µM trolox/µM Compound. Further, the “Effect on oxidative stress” value in [2] was “ameliorate the oxidative stress”. For the same compound, the “TEAC, ORAC” value in experiment [3] is 6.93 ± 0.30 ^a µM trolox/µM Compound. In the experiment on diabetic rats, the “Progression of lens opacification” value is on record as “delay the progression of lens opacification”. Moreover, in experiment [4], the inhibition at 12.5 µM is 19.4 ± 1.76%, the inhibition at 25 µM came out at 35.4 ± 0.92%, the inhibition at 50 µM was found to be 67.47 ± 0.24% and the inhibition at 100 µM is 84.3 ± 1.39%. In addition, the “TEAC, DPPH” value in experiment [5] is recorded as 2.14 ± 0.03 ^b µM trolox/µM Compound. Besides, at aldose reductase (AR), the inhibition at 3.125 µM is 12.9 ± 2.11%, the inhibition at 6.25 µM amounted to 26.3 ± 1.21%, the inhibition at 12.5 µM was 43 ± 3.02% and the inhibition at 25 µM is 60 ± 1.21%. Moreover, the “Inhibition of AGEs by trapping methylglyoxal” value in experiment [6] is recorded as “inhibit AGEs by trapping methylglyoxal”. The Impaired cardiac function result in experiment [7] is reported as “partially reverse the impaired cardiac function”.

Source of the values: article PMC7796107, “Efficient Separation of Phytochemicals from Muehlenbeckia volcanica (Benth.) Endl. by Polarity-Stepwise Elution Counter-Current Chromatography and Their Antioxidant, Antiglycation, and Aldose Reductase Inhibition Potentials” (Molecules, 2021).
